pIC50, pKd: −log10 of the molar value. Active and inactive are the calls of the source. No cut-off for these calls is given here.
Experiments:
[1] = target: T1, Bromodomain-containing protein 1 (Homo sapiens) (UniProt O95696); assay: Binding affinity to human BRD1 at 10 uM by differential scanning fluorimetry
T1 sequence (whole entry): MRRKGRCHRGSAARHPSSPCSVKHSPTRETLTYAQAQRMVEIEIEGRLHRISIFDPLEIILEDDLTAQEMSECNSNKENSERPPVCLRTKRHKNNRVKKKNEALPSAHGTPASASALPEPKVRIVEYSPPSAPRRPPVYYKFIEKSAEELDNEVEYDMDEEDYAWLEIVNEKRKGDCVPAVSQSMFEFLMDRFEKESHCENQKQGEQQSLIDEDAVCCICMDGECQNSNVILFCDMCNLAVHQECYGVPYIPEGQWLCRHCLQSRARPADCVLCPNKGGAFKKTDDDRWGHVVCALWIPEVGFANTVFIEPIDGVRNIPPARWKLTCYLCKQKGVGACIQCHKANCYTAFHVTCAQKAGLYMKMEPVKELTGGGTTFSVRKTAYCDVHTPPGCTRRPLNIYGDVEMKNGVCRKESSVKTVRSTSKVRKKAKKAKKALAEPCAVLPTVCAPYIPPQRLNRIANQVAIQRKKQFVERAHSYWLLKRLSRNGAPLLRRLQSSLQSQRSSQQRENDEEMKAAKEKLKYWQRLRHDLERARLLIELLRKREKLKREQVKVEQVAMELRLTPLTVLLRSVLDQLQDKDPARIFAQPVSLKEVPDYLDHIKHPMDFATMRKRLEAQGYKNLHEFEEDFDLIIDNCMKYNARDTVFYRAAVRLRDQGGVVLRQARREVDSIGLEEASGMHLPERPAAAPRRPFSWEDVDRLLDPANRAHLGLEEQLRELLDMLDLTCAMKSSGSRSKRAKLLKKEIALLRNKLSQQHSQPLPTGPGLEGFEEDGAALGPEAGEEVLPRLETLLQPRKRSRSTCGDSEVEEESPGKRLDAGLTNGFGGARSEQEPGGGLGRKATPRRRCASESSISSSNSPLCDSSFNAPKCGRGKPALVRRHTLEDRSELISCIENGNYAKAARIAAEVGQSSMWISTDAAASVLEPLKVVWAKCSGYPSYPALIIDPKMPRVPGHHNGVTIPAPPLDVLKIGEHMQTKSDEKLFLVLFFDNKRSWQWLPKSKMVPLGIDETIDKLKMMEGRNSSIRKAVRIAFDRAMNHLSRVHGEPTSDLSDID

[2] = target: T2, Bromodomain-containing protein 9 (Homo sapiens) (UniProt Q9H8M2); assay: Inhibition of human BRD9 expressed in U2OS cells assessed as inhibition of BRD9-chromatin association after 24 hrs by FRAP assay in presence of pan-HDAC inhibitor SAHA; assay type: cell-based
T2 sequence (whole entry): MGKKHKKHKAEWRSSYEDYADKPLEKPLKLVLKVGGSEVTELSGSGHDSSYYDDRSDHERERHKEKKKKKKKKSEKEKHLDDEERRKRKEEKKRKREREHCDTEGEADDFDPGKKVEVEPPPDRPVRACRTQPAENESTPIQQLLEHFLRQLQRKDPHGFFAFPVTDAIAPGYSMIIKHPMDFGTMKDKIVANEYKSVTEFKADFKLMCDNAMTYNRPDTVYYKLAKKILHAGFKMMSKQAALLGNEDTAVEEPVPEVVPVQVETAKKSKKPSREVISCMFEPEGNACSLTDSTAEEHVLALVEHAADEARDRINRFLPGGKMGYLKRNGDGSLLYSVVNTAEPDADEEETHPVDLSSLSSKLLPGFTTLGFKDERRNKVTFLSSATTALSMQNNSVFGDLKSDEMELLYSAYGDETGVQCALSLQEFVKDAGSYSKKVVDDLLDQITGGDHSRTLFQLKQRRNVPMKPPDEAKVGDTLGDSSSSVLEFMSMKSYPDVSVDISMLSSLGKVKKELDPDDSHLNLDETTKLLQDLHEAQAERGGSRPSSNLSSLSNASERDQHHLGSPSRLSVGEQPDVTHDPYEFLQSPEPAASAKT

[3] = target: Histone acetyltransferase p300 (Homo sapiens) (UniProt Q09472); assay: Binding affinity to human p300 assessed as change in melting temperature at 10 uM by differential scanning fluorimetry
Histone acetyltransferase p300 (Homo sapiens), sequence (Q09472 whole entry): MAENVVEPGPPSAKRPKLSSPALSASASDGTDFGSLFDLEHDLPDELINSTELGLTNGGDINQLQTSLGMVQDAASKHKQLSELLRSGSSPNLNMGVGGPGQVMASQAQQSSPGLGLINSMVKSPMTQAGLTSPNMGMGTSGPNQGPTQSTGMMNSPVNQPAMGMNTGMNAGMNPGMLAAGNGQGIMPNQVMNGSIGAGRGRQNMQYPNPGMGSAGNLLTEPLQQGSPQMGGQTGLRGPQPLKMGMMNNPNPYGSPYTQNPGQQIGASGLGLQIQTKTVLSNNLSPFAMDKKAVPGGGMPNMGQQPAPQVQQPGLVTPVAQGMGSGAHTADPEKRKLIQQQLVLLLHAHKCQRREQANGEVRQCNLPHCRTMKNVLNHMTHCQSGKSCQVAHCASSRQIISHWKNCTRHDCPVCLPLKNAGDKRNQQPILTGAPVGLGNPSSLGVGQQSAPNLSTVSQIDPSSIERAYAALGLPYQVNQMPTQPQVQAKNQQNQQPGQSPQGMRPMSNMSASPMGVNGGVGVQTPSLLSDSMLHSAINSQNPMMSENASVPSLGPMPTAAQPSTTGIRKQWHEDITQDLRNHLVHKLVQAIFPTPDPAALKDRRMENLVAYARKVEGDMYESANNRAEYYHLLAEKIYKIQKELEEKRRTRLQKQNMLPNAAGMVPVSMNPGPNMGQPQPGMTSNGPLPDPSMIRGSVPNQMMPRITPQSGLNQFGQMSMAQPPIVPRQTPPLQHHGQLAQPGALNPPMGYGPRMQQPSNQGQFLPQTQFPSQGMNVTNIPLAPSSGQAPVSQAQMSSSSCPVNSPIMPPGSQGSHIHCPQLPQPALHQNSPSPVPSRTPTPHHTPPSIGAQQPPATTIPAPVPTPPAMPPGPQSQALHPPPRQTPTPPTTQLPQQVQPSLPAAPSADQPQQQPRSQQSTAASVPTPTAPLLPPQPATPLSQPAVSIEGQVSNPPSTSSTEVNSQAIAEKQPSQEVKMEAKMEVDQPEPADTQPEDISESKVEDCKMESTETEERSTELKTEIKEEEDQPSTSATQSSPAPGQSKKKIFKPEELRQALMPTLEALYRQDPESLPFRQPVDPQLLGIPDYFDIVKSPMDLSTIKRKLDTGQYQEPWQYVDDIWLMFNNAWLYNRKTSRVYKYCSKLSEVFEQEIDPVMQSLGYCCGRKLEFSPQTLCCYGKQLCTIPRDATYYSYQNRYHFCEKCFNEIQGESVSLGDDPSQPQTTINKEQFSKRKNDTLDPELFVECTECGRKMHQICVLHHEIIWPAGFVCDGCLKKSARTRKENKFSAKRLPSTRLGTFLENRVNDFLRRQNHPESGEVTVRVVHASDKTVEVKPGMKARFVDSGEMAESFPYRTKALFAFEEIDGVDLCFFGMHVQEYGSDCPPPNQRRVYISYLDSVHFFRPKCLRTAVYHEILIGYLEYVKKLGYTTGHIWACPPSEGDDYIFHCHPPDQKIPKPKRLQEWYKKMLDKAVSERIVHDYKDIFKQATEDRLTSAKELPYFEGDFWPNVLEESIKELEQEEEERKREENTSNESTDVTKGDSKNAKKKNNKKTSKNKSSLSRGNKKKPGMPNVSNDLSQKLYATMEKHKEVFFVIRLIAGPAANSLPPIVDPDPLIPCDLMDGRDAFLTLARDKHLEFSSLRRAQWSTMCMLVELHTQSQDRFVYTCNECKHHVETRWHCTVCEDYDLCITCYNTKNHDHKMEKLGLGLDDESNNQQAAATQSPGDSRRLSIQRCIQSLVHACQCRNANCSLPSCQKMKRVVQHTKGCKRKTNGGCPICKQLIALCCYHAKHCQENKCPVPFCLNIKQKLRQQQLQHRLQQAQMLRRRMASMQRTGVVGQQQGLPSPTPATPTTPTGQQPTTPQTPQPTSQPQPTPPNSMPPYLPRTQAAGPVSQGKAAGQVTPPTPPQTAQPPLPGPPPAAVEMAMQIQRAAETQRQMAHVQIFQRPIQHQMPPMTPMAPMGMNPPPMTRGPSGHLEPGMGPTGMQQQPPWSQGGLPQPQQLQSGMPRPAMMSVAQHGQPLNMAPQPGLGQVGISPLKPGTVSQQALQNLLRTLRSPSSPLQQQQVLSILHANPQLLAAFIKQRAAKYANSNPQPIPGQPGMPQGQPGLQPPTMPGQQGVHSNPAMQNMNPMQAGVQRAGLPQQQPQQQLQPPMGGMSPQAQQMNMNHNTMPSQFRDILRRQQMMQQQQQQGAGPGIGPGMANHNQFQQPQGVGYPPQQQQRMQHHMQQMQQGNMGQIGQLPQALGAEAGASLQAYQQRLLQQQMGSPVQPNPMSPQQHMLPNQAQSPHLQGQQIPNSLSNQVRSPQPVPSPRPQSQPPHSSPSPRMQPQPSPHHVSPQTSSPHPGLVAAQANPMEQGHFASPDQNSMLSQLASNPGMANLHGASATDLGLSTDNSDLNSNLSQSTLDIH

[4] = target: Nucleosome-remodeling factor subunit BPTF (Homo sapiens) (UniProt Q12830); assay: Binding affinity to human FALZ assessed as change in melting temperature at 10 uM by differential scanning fluorimetry
[5] = target: T3, Bromodomain-containing protein 7 (Homo sapiens) (UniProt Q9NPI1); assay: Binding affinity to human BRD7 assessed as change in melting temperature at 10 uM by differential scanning fluorimetry
T3 sequence (whole entry): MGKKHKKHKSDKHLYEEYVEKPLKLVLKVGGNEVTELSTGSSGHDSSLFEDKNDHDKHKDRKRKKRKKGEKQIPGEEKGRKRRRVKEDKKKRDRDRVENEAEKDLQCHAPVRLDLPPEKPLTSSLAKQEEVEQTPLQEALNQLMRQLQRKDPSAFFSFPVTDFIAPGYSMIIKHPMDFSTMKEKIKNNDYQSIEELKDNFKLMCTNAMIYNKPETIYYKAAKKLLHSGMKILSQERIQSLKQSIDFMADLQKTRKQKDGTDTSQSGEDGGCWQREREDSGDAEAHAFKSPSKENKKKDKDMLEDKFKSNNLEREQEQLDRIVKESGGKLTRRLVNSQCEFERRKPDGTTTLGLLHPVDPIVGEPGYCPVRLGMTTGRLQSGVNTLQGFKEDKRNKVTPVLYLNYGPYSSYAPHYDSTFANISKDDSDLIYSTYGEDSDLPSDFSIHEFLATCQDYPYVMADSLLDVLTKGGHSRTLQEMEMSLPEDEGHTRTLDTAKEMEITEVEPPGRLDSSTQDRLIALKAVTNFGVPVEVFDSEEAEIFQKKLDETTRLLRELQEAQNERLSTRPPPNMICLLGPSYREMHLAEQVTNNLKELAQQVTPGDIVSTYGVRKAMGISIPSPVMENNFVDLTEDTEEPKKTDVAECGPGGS

[6] = target: T4, Bromodomain adjacent to zinc finger domain protein 2B (Homo sapiens, UniProt Q9UIF8); assay: Binding affinity to human BAZ2B at 10 uM by differential scanning fluorimetry
T4 sequence (Q9UIF8 whole entry, the tested form may be a part): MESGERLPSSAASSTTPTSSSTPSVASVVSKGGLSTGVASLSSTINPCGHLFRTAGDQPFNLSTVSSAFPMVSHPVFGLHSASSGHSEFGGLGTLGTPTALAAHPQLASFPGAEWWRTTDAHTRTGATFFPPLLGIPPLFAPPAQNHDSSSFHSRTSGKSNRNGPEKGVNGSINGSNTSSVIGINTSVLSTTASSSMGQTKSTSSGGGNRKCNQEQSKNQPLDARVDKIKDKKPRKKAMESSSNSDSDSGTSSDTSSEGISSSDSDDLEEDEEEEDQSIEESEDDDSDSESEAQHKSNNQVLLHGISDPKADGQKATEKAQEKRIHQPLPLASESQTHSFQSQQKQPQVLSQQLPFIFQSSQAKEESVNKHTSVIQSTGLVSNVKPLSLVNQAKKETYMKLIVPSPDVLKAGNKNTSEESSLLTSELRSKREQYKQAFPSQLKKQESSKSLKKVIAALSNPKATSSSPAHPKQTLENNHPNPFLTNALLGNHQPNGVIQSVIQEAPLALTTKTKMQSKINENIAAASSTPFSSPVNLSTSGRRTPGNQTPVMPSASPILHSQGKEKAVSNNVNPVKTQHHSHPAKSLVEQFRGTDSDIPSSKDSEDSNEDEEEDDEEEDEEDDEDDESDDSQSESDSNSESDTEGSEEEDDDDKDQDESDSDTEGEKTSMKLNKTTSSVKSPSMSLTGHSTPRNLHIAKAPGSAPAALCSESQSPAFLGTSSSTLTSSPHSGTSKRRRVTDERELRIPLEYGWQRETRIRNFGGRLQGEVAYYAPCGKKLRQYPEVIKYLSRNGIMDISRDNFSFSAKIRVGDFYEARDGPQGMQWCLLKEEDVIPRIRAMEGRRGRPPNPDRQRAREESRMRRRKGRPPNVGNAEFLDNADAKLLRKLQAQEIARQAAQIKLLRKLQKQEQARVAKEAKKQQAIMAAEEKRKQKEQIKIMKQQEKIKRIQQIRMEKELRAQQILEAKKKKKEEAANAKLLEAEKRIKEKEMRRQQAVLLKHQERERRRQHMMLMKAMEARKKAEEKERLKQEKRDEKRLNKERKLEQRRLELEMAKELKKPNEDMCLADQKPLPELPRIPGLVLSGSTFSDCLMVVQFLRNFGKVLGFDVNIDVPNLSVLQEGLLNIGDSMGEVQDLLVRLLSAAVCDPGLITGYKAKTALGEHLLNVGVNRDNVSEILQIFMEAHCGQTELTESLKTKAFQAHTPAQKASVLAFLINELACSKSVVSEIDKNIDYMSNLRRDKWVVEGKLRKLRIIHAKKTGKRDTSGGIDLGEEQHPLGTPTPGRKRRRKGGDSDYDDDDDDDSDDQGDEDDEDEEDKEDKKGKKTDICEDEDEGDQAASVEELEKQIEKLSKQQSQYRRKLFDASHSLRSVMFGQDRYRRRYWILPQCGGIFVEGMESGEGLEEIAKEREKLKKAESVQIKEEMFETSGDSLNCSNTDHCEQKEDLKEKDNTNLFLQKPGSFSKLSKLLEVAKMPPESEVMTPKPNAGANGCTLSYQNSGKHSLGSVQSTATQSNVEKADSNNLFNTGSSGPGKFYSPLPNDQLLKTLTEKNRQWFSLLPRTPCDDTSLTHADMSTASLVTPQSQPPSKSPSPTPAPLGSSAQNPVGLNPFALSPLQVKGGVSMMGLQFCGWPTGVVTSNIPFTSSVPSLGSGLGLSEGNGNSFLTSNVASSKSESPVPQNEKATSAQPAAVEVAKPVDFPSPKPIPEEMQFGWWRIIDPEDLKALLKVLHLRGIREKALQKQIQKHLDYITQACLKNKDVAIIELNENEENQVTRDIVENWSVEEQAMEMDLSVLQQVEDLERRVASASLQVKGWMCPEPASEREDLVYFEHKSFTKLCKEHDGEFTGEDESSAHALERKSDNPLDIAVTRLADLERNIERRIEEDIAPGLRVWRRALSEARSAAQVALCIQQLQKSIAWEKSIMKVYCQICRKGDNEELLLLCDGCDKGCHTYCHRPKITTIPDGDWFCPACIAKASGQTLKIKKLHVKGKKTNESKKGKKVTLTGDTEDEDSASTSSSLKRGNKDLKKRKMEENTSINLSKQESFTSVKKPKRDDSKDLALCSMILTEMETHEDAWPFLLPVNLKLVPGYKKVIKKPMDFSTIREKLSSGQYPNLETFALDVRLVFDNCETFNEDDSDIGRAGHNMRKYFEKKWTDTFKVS

[7] = target: Bromodomain-containing protein 2 (Homo sapiens) (UniProt P25440); assay: Binding affinity to human BRD2 at 10 uM by differential scanning fluorimetry
[8] = target: T4, Bromodomain adjacent to zinc finger domain protein 2B; assay: Inhibition of human BAZ2B by alpha screen assay
[9] = target: T5, Bromodomain-containing protein 9 (Homo sapiens, UniProt Q9H8M2); assay: Binding affinity to human BRD9 by isothermal titration calorimetry
T5 sequence (Q9H8M2 whole entry): T2 sequence (whole entry)

- Activity [1]: Active
- inhibition [2]: Dose-dependent effect
- ΔTm [3]: 2 °C
- ΔTm [4]: 1.1 °C
- ΔTm [5]: 5.6 °C
- Activity [6]: Active
- Activity [7]: Active
- pIC50 [8]: < 4.00
- pKd [9]: 7.17
SMILES: CC(=O)c1cc(-c2cccc3nccn23)c2cc(N3CCOCC3)ccn12

Source: ChEMBL document CHEMBL3739345, “Design and synthesis of potent and selective inhibitors of BRD7 and BRD9 bromodomains” (Medchemcomm, 2015)
